Assay: recombinant UMI read abundance after kanamycin selection (control-corrected) (log10(CPM+1)); higher = more efficient recombination; extreme values may be limits of the assay; sequences stand for … in AGTGCAGAGAAAATCGGCCAGTTTTCTCTGCCTGCAGTCCGCATGCCGTGGGACCCCTTGGGTTCTAACCTGTTGCCTAGATTTATGCAGCGGACTGCCTTTCTCCCAAAGTGATAAACCGG…AGGTTGGTTTCACT; site = the 11-nt donor
Procedure, shortened: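 Reported values are log10(CPM+1) from a pooled Escherichia coli screen of donor and donor-binding-loop pairs for the IS621 bridge recombinase. Selection used IPTG (0.07 mM) plus kanamycin, against unselected plating, each in two replicates. Recombinant UMIs were amplified across the donor–target junction, sequenced, converted to CPM, averaged over replicates and scaled by control-derived factors.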
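Note: IS621 bridge recombinase in Escherichia coli cells against a fixed T5 target plasmid.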

Sequence: CCCAGATCATGGACCGGTTTTCCCGGTAATCCGTATTTGGA (site CCCAGATCTTC)
- recombinant UMI read abundance (log10): 0.0263

Sequence: CCCAGGACATGGACCGGTTTTCCCGGTAATCCGTATTTGCG (site CCCAGGACTCG)
- recombinant UMI read abundance (log10): 0.893

Sequence: CCCAGGGCATGGACCGGTTTTCCCGGTAATCCGTATTTGTG (site CCCAGGGCTCA)
- recombinant UMI read abundance (log10): 0.475

Sequence: CCCATATCATGGACCGGTTTTCCCGGTAATCCGTATTTGCC (site CCCATATCTGA)
- recombinant UMI read abundance (log10): 0

Sequence: CCCATATCATGGACCGGTTTTCCCGGTAATCCGTATTTGCC (site CCCATATCTGC)
- recombinant UMI read abundance (log10): 0

Sequence: CCCATATCATGGACCGGTTTTCCCGGTAATCCGTATTTGCC (site CCCATATCTGG)
- recombinant UMI read abundance (log10): 0.328

Sequence: CCCATATCATGGACCGGTTTTCCCGGTAATCCGTATTTGCC (site CCCATATCTGT)
- recombinant UMI read abundance (log10): 0.454

Sequence: CCCATATCATGGACCGGTTTTCCCGGTAATCCGTATTTGTG (site CCCATATCTAA)
- recombinant UMI read abundance (log10): 0.00783

Sequence: CCCATATCATGGACCGGTTTTCCCGGTAATCCGTATTTGTG (site CCCATATCTCA)
- recombinant UMI read abundance (log10): 0.356

Sequence: CCCATATCATGGACCGGTTTTCCCGGTAATCCGTATTTGTG (site CCCATATCTGA)
- recombinant UMI read abundance (log10): 0

Sequence: CCCATATCATGGACCGGTTTTCCCGGTAATCCGTATTTGTG (site CCCATATCTTA)
- recombinant UMI read abundance (log10): 0.0103

Sequence: CCCATGTCATGGACCGGTTTTCCCGGTAATCCGTATTTGTC (site CCCATATCTGA)
- recombinant UMI read abundance (log10): 0

Sequence: CCCATGTCATGGACCGGTTTTCCCGGTAATCCGTATTTGTC (site CCCATCTCTGA)
- recombinant UMI read abundance (log10): 0

Sequence: CCCATGTCATGGACCGGTTTTCCCGGTAATCCGTATTTGTC (site CCCATGTCTGA)
- recombinant UMI read abundance (log10): 1.64

Sequence: CCCATGTCATGGACCGGTTTTCCCGGTAATCCGTATTTGTC (site CCCATTTCTGA)
- recombinant UMI read abundance (log10): 0

Sequence: CCCATTTCATGGACCGGTTTTCCCGGTAATCCGTATTTGTC (site CCCATATCTGA)
- recombinant UMI read abundance (log10): 0

Sequence: CCCATTTCATGGACCGGTTTTCCCGGTAATCCGTATTTGTC (site CCCATCTCTGA)
- recombinant UMI read abundance (log10): 0

Sequence: CCCATTTCATGGACCGGTTTTCCCGGTAATCCGTATTTGTC (site CCCATGTCTGA)
- recombinant UMI read abundance (log10): 0

Sequence: CCCATTTCATGGACCGGTTTTCCCGGTAATCCGTATTTGTC (site CCCATTTCTGA)
- recombinant UMI read abundance (log10): 0

Sequence: CCCCAATCATGGACCGGTTTTCCCGGTAATCCGTATTTGTG (site CCCCAATCTCA)
- recombinant UMI read abundance (log10): 0.678

Sequence: CCCCACACATGGACCGGTTTTCCCGGTAATCCGTATTTGAA (site CCCCACACTTA)
- recombinant UMI read abundance (log10): 0.0109

Sequence: CCCCACACATGGACCGGTTTTCCCGGTAATCCGTATTTGAA (site CCCCACACTTC)
- recombinant UMI read abundance (log10): 0.33

Sequence: CCCCACACATGGACCGGTTTTCCCGGTAATCCGTATTTGAA (site CCCCACACTTG)
- recombinant UMI read abundance (log10): 0

Sequence: CCCCACACATGGACCGGTTTTCCCGGTAATCCGTATTTGAA (site CCCCACACTTT)
- recombinant UMI read abundance (log10): 0.557

Sequence: CCCCACACATGGACCGGTTTTCCCGGTAATCCGTATTTGTA (site ACCCACACTTA)
- recombinant UMI read abundance (log10): 0.0144

Sequence: CCCCACACATGGACCGGTTTTCCCGGTAATCCGTATTTGTA (site CACCACACTTA)
- recombinant UMI read abundance (log10): 0.0132

Sequence: CCCCACACATGGACCGGTTTTCCCGGTAATCCGTATTTGTA (site CCACACACTTA)
- recombinant UMI read abundance (log10): 0.0146

Sequence: CCCCACACATGGACCGGTTTTCCCGGTAATCCGTATTTGTA (site CCCAACACTTA)
- recombinant UMI read abundance (log10): 0

Sequence: CCCCACACATGGACCGGTTTTCCCGGTAATCCGTATTTGTA (site CCCCAAACTTA)
- recombinant UMI read abundance (log10): 0

Sequence: CCCCACACATGGACCGGTTTTCCCGGTAATCCGTATTTGTA (site CCCCACACTAA)
- recombinant UMI read abundance (log10): 0.0177

Sequence: CCCCACACATGGACCGGTTTTCCCGGTAATCCGTATTTGTA (site CCCCACACTCA)
- recombinant UMI read abundance (log10): 0.0202

Sequence: CCCCACACATGGACCGGTTTTCCCGGTAATCCGTATTTGTA (site CCCCACACTGA)
- recombinant UMI read abundance (log10): 0

Sequence: CCCCACACATGGACCGGTTTTCCCGGTAATCCGTATTTGTA (site CCCCACACTTA)
- recombinant UMI read abundance (log10): 1.14

Sequence: CCCCACACATGGACCGGTTTTCCCGGTAATCCGTATTTGTA (site CCCCACACTTC)
- recombinant UMI read abundance (log10): 0.0125

Sequence: CCCCACACATGGACCGGTTTTCCCGGTAATCCGTATTTGTA (site CCCCACACTTG)
- recombinant UMI read abundance (log10): 0.586

Sequence: CCCCACACATGGACCGGTTTTCCCGGTAATCCGTATTTGTA (site CCCCACACTTT)
- recombinant UMI read abundance (log10): 0.00983

Sequence: CCCCACACATGGACCGGTTTTCCCGGTAATCCGTATTTGTA (site CCCCACCCTTA)
- recombinant UMI read abundance (log10): 0.00838

Sequence: CCCCACACATGGACCGGTTTTCCCGGTAATCCGTATTTGTA (site CCCCACGCTTA)
- recombinant UMI read abundance (log10): 0.0198

Sequence: CCCCACACATGGACCGGTTTTCCCGGTAATCCGTATTTGTA (site CCCCACTCTTA)
- recombinant UMI read abundance (log10): 0.273

Sequence: CCCCACACATGGACCGGTTTTCCCGGTAATCCGTATTTGTA (site CCCCAGACTTA)
- recombinant UMI read abundance (log10): 0.0244

Sequence: CCCCACACATGGACCGGTTTTCCCGGTAATCCGTATTTGTA (site CCCCATACTTA)
- recombinant UMI read abundance (log10): 0.0127

Sequence: CCCCACACATGGACCGGTTTTCCCGGTAATCCGTATTTGTA (site CCCCCCACTTA)
- recombinant UMI read abundance (log10): 0.0246

Sequence: CCCCACACATGGACCGGTTTTCCCGGTAATCCGTATTTGTA (site CCCCGCACTTA)
- recombinant UMI read abundance (log10): 0.0118

Sequence: CCCCACACATGGACCGGTTTTCCCGGTAATCCGTATTTGTA (site CCCCTCACTTA)
- recombinant UMI read abundance (log10): 0.0137

Sequence: CCCCACACATGGACCGGTTTTCCCGGTAATCCGTATTTGTA (site CCCGACACTTA)
- recombinant UMI read abundance (log10): 0.0189

Sequence: CCCCACACATGGACCGGTTTTCCCGGTAATCCGTATTTGTA (site CCCTACACTTA)
- recombinant UMI read abundance (log10): 0.0176

Sequence: CCCCACACATGGACCGGTTTTCCCGGTAATCCGTATTTGTA (site CCGCACACTTA)
- recombinant UMI read abundance (log10): 0.021

Sequence: CCCCACACATGGACCGGTTTTCCCGGTAATCCGTATTTGTA (site CCTCACACTTA)
- recombinant UMI read abundance (log10): 0.0102

Sequence: CCCCACACATGGACCGGTTTTCCCGGTAATCCGTATTTGTA (site CGCCACACTTA)
- recombinant UMI read abundance (log10): 0.016

Sequence: CCCCACACATGGACCGGTTTTCCCGGTAATCCGTATTTGTA (site CTCCACACTTA)
- recombinant UMI read abundance (log10): 0.113

Sequence: CCCCACACATGGACCGGTTTTCCCGGTAATCCGTATTTGTA (site GCCCACACTTA)
- recombinant UMI read abundance (log10): 0.00479

Sequence: CCCCACACATGGACCGGTTTTCCCGGTAATCCGTATTTGTA (site TCCCACACTTA)
- recombinant UMI read abundance (log10): 0.0139

Sequence: CCCCAGACATGGACCGGTTTTCCCGGTAATCCGTATTTGTA (site CCCCAAACTTA)
- recombinant UMI read abundance (log10): 0.459

Sequence: CCCCAGACATGGACCGGTTTTCCCGGTAATCCGTATTTGTA (site CCCCACACTTA)
- recombinant UMI read abundance (log10): 0.0077

Sequence: CCCCAGACATGGACCGGTTTTCCCGGTAATCCGTATTTGTA (site CCCCAGACTTA)
- recombinant UMI read abundance (log10): 0.691

Sequence: CCCCAGACATGGACCGGTTTTCCCGGTAATCCGTATTTGTA (site CCCCATACTTA)
- recombinant UMI read abundance (log10): 0.00999

Sequence: CCCCCCACATGGACCGGTTTTCCCGGTAATCCGTATTTGTA (site CCCCACACTTA)
- recombinant UMI read abundance (log10): 0.00745

Sequence: CCCCCCACATGGACCGGTTTTCCCGGTAATCCGTATTTGTA (site CCCCCCACTTA)
- recombinant UMI read abundance (log10): 0.82

Sequence: CCCCCCACATGGACCGGTTTTCCCGGTAATCCGTATTTGTA (site CCCCGCACTTA)
- recombinant UMI read abundance (log10): 0.0126

Sequence: CCCCCCACATGGACCGGTTTTCCCGGTAATCCGTATTTGTA (site CCCCTCACTTA)
- recombinant UMI read abundance (log10): 0.00445

Sequence: CCCCGCACATGGACCGGTTTTCCCGGTAATCCGTATTTGTA (site CCCCACACTTA)
- recombinant UMI read abundance (log10): 0.48

Sequence: CCCCGCACATGGACCGGTTTTCCCGGTAATCCGTATTTGTA (site CCCCCCACTTA)
- recombinant UMI read abundance (log10): 0.00659

Sequence: CCCCGCACATGGACCGGTTTTCCCGGTAATCCGTATTTGTA (site CCCCGCACTTA)
- recombinant UMI read abundance (log10): 1.16

Sequence: CCCCGCACATGGACCGGTTTTCCCGGTAATCCGTATTTGTA (site CCCCTCACTTA)
- recombinant UMI read abundance (log10): 0.00635

Sequence: CCCCGCCCATGGACCGGTTTTCCCGGTAATCCGTATTTGTC (site CCCCGCCCTGA)
- recombinant UMI read abundance (log10): 0

Sequence: CCCCGTACATGGACCGGTTTTCCCGGTAATCCGTATTTGAT (site CCCCGTACTAT)
- recombinant UMI read abundance (log10): 1.45

Sequence: CCCCGTACATGGACCGGTTTTCCCGGTAATCCGTATTTGCT (site CACCGTACTAG)
- recombinant UMI read abundance (log10): 0.00449

Sequence: CCCCGTACATGGACCGGTTTTCCCGGTAATCCGTATTTGCT (site CCCCGTACTAG)
- recombinant UMI read abundance (log10): 1.56

Sequence: CCCCGTACATGGACCGGTTTTCCCGGTAATCCGTATTTGCT (site CGCCGTACTAG)
- recombinant UMI read abundance (log10): 0

Sequence: CCCCGTACATGGACCGGTTTTCCCGGTAATCCGTATTTGCT (site CTCCGTACTAG)
- recombinant UMI read abundance (log10): 0.542

Sequence: CCCCTCACATGGACCGGTTTTCCCGGTAATCCGTATTTGTA (site CCCCACACTTA)
- recombinant UMI read abundance (log10): 0.0243

Sequence: CCCCTCACATGGACCGGTTTTCCCGGTAATCCGTATTTGTA (site CCCCCCACTTA)
- recombinant UMI read abundance (log10): 0.274

Sequence: CCCCTCACATGGACCGGTTTTCCCGGTAATCCGTATTTGTA (site CCCCGCACTTA)
- recombinant UMI read abundance (log10): 0.0202

Sequence: CCCCTCACATGGACCGGTTTTCCCGGTAATCCGTATTTGTA (site CCCCTCACTTA)
- recombinant UMI read abundance (log10): 1.15

Sequence: CCCCTCGCATGGACCGGTTTTCCCGGTAATCCGTATTTGAA (site CCCCTCGCTTT)
- recombinant UMI read abundance (log10): 0.801

From the supplement of paper PMC11208160
